Experimental findings from US9242970B2 (ACTELION PHARMACEUTICALS LTD., priority 2010, dated 2016) are described below.

Like-named read-outs stand apart in the source and are kept apart here.

Experiment [1] has as its target human orexin-1 receptor (Homo sapiens (Human), UniProt O43613). Nature of the experiment: In vitro assay: intracellular calcium measurements (FLIPR), antagonistic activity. The note with it: CHO cells, 3 nM orexin-A, marked values are geometric means of n = 2-6, read-out: IC50 OX1. The format is cell-based.
Experiment [2] deals with human orexin-2 receptor (Homo sapiens (Human), UniProt O43614). The description is as above. The experiment is classed as cell-based. The settings on record: CHO cells, 3 nM orexin-A, marked values are geometric means of n = 2-6, read-out: IC50 OX2.
The mark [3] stands for this setting: compound incubation time of 10 min.

Sequence of human orexin-1 receptor (O43613 whole entry): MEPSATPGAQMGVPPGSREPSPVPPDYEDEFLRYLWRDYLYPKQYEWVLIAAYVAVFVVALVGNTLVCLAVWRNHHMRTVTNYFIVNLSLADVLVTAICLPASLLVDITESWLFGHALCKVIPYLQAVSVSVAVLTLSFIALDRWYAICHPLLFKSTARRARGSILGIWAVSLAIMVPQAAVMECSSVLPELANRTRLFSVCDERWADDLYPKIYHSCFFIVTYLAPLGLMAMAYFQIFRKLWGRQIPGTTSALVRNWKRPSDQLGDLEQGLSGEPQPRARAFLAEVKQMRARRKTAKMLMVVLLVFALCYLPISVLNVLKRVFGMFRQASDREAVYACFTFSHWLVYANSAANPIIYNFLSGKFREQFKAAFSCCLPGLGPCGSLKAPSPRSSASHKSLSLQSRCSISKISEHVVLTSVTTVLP
Sequence of human orexin-2 receptor (O43614 whole entry): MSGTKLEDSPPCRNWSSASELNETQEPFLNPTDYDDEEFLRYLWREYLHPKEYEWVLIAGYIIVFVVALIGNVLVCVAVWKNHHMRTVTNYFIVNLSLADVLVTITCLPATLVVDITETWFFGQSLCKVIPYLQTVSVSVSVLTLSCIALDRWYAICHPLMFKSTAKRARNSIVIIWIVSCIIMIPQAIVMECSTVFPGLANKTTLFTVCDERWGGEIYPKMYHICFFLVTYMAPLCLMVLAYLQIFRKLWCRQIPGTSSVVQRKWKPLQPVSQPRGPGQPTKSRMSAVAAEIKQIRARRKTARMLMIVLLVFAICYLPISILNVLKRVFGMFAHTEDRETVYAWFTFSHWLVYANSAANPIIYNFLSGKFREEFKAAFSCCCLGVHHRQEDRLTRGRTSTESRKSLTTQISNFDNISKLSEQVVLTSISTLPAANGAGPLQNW

On to `COc1cccc(OC(C)C)c1C1CCCC(=O)N1Cc1ccc(OC(F)(F)F)cc1` (stereo not shown) [Example 230, 6-(2-isopropoxy-6-methoxyphenyl)-1-(4-(trifluoromethoxy)benzyl)piperidin-2-one], for which the figures for the IC50 in experiment [1] (setting [3]) and in experiment [2] (setting [3]) were 363 nM and 85 nM, respectively.

With `COc1cc(F)cc(OC)c1C1CCCC(=O)N1Cc1ccc(OC(F)(F)F)cc1` (stereo not shown) [Example 232, 6-(4-fluoro-2,6-dimethoxyphenyl)-1-(4-(trifluoromethoxy)benzyl)piperidin-2-one], the values for the IC50 in experiment [1] (setting [3]) and in experiment [2] (setting [3]) were 270 nM and 27 nM, respectively.

Turning to `COc1cc(C)cc(OC)c1C1CCCC(=O)N1Cc1ccc(OC(F)(F)F)cc1` (stereo not shown) [Example 233, 6-(2,6-dimethoxy-4-methylphenyl)-1-(4-(trifluoromethoxy)benzyl)piperidin-2-one], the IC50 in experiment [1] (setting [3]) was 400 nM; in experiment [2] (setting [3]) it was 107 nM.

Turning to `COc1cc(F)cc(OC)c1C1CCCC(=O)N1Cc1cccc(-c2ccccc2)c1` (stereo not shown) [Example 234, 1-([1,1′-biphenyl]-3-ylmethyl)-6-(4-fluoro-2,6-dimethoxyphenyl)piperidin-2-one], the half-inhibitory concentration (IC50) in experiment [1] (compound incubation 120 min) came out at 262 nM; in experiment [2] (compound incubation 120 min), 232 nM.

Take `COc1ccc2c(C)noc2c1C1CCCC(=O)N1Cc1cccc(-c2ccccc2)c1` (stereo not shown) [Example 235, 1-([1,1′-biphenyl]-3-ylmethyl)-6-(6-methoxy-3-methylbenzo[d]isoxazol-7-yl)piperidin-2-one]: the IC50 is 288 nM in experiment [1] (compound incubation 120 min) and 194 nM in experiment [2] (compound incubation 120 min).

On to `COc1ccccc1C1CCCC(=O)N1Cc1ccc2ccccc2c1` (stereo not shown) [Example 236, 6-(2-methoxyphenyl)-1-(naphthalen-2-ylmethyl)piperidin-2-one], for which the IC50 in experiment [1] (setting [3]) was determined as 1770 nM; in experiment [2] (setting [3]), 369 nM.

For the molecule `COc1ccccc1C1CCCC(=O)N1Cc1ccc(OC(F)(F)F)cc1` (stereo not shown) [Example 237, 6-(2-methoxyphenyl)-1-(4-(trifluoromethoxy)benzyl)piperidin-2-one], the values for the IC50 in experiment [1] (setting [3]) and in experiment [2] (setting [3]) were 3490 nM and 635 nM, respectively.

With `COc1cccc(OC)c1C1CCCC(=O)N1Cc1ccc2ccccc2c1` (stereo not shown) [Example 238, 6-(2,6-dimethoxyphenyl)-1-(naphthalen-2-ylmethyl)piperidin-2-one], the IC50 in experiment [1] (setting [3]) came out at 77 nM; in experiment [2] (setting [3]), 47 nM.

Turning to `O=C1CCCC(c2ccccc2C(F)(F)F)N1Cc1ccc2ccccc2c1` (stereo not shown) [Example 239, 1-(naphthalen-2-ylmethyl)-6-(2-(trifluoromethyl)phenyl)piperidin-2-one], the IC50 in experiment [1] (setting [3]) came to 6420 nM; in experiment [2] (setting [3]), 3580 nM.

In the case of `COc1cccc(OC)c1C1CCCC(=O)N1Cc1ccc2c(c1)CCCN2` (stereo not shown) [Example 240, 6-(2,6-dimethoxyphenyl)-1-((1,2,3,4-tetrahydroquinolin-6-yl)methyl)piperidin-2-one], the IC50 in experiment [1] (setting [3]) turned out to be 2040 nM; in experiment [2] (setting [3]) it was 596 nM.

On to `COc1cccc(OC)c1C1CCCC(=O)N1Cc1ccc2c(ccn2C)c1` (stereo not shown) [Example 241, 6-(2,6-dimethoxyphenyl)-1-((1-methyl-1H-indol-5-yl)methyl)piperidin-2-one], for which the IC50 in experiment [1] (setting [3]) worked out at 426 nM; in experiment [2] (setting [3]) it was 275 nM.

On to `COc1cccc(OC)c1C1CCCC(=O)N1Cc1cn2ccccc2n1` (stereo not shown) [Example 242, 6-(2,6-dimethoxyphenyl)-1-(imidazo[1,2-a]pyridin-2-ylmethyl)piperidin-2-one], for which the IC50 was found to be 17700 nM in experiment [1] (setting [3]) and 1390 nM in experiment [2] (setting [3]).

For `COc1cccc(OC)c1C1CCCC(=O)N1Cc1ccc2c(c1)nnn2C` (stereo not shown) [Example 243, 6-(2,6-dimethoxyphenyl)-1-((1-methyl-1H-benzo[d][1,2,3]triazol-5-yl)methyl)piperidin-2-one], the IC50 in experiment [1] (setting [3]) is 10100 nM; in experiment [2] (setting [3]) it was 311 nM.

For `COc1cccc(OC)c1C1CCCC(=O)N1Cc1ccc(-c2ccccc2)cc1` (stereo not shown) [Example 244, 1-([1,1′-biphenyl]-4-ylmethyl)-6-(2,6-dimethoxyphenyl)piperidin-2-one], the values for the IC50 in experiment [1] (setting [3]) and in experiment [2] (setting [3]) were 1090 nM and 72 nM, respectively.
